# Results: article PMC12040169 (PLOS Biology, 2025)
# Assay: in vitro
# Conditions: human, hela cells, % viability
row,SMILES,"viability at 28.5 h, 10 µM"
1,CCN(CC1CCOC1)C(=O)c1cn2ccccc2n1 (stereo not drawn) [CBK305653],83.5%
2,COc1cccc(C(=O)NCCC(=O)N2CCc3c(nc[nH]c3=O)C2)c1 [CBK307231],103%
3,COc1ccc2[nH]cc(C(=O)NCCn3nc(C)c(C)c3C)c2c1 [CBK281389],88.2%
4,CC(C)c1ccc(C2C(C(=O)c3ccco3)=C(O)C(=O)N2CCCN(C)C)cc1 (stereo not drawn) [CBK264549],94.8%
5,CCn1c2ccccc2c2cc(NC(=O)CC(C)CC(=O)O)ccc21 (stereo not drawn) [CBK300031],103%
6,CCn1ncc(S(=O)(=O)Nc2ccc3c(c2)cc(C)n3C)c1C [CBK282761],95.6%
7,Cn1nc(-c2ccc(F)cc2)n(-c2ccncc2)c1=O [CBK282294],96.5%
8,CC1(N2CCOCC2)CC2(O)C(=[N+]1[O-])CCc1c2no[n+]1[O-] (stereo not drawn) [CBK261516],90.5%
9,N#CCCn1cc(C(=O)n2nnc3ccccc32)c(-c2cc3ccccc3o2)n1 [CBK268073],103%
10,CC(=O)Nc1ccc(S(=O)(=O)Nc2nnc(CC(C)(C)C)s2)cc1 [CBK049910],87.7%
11,CS(=O)(=O)N1CC2(CCN(Cc3cccnc3)CC2)c2ccccc21 [CBK084006],98.1%
12,CCOC(=O)c1c(C)oc2ccc(O)c(CN3CCCCC3)c12 [CBK263838C],103%
13,NCCC(=O)N(CCc1cc(C(F)(F)F)cc(C(F)(F)F)c1)c1cccc2ccccc12 [CBK000695T],0%
14,COc1ccc(OCCN(C)c2cnn(-c3ccc(C(=O)O)cc3)c(=O)c2Cl)cc1 [CBK296627],104%
15,Cn1c(-c2ccc(CN3CCCC3)cc2)cc2onc(-c3cccnc3)c2c1=O [CBK048501C],99.1%
16,Cc1ccc(S(=O)(=O)N2CCN(c3ccc([N+](=O)[O-])c(NCCN4CCOCC4)c3)CC2)cc1 [CBK265432],102%
17,Cc1nn2c(C3CCCNC3)ccnc2c1-c1ccc(F)cc1 (stereo not drawn) [CBK284139],78.8%
18,CCN(CC)C(=O)CN1CCN(c2nccnc2OC)CC1 [CBK084221],83.9%
19,O=C(O)C1CC=CCC1C(=O)NCc1ccncc1 (stereo not drawn) [CBK265481],89.2%
20,CCn1cncc1CN1CCCC(c2cc3cccnc3[nH]2)C1 (stereo not drawn) [CBK284993],98.5%
21,CCc1ccc(-c2cnccc2-n2ccnc2)cc1 [CBK177151],93%
22,COc1ccc(OC)c(-c2nc(Nc3ccc(Cl)cc3Cl)sc2CC(=O)O)c1 [CBK264175],103%

row,SMILES,"viability at 28.5 h, 10 µM"
1,O=C(O)COCC(=O)N1CCC2(CC1)NC(=O)Cc1c2ccc2ccccc12 [CBK047168],88.4%
2,O=C(O)c1nccnc1-c1ccc(COc2cccc3ccccc23)cc1 [CBK050810],95.4%
3,COc1ccc([C@@]23CC[C@@H](NC(=O)c4ccc(-c5ccccc5)cc4)CC2N(C)CC3)cc1OC (stereo partly drawn) [CBK074973T],89.6%
4,Cc1ccc(N(C(C)C(=O)Nc2ccccc2-c2ccccc2)S(C)(=O)=O)cc1 (stereo not drawn) [CBK267889],105%
5,COC(=O)c1cn([C@H]2CO[C@H]3[C@@H]2OC[C@@H]3NC(=O)NC2CCCCC2)nn1 [CBK289499],82.4%
6,O=C(O)C(Cc1ccccc1)C(C(=O)O)c1ccccc1 (stereo not drawn) [CBK286578],94.3%
7,CN(C)C1Cc2cccc3nc(S(C)(=O)=O)n(c23)C1 (stereo not drawn) [CBK007942],94.8%
8,COC(=O)C1=COC(C)C2CN3CCC4(NC(=O)c5c4ccc(OC)c5OC)C3CC12 (stereo not drawn) [CBK003303],107%
9,CN(C)c1ccc(-c2nccnc2NS(=O)(=O)c2ccc(C(F)(F)F)cc2)cc1 [CBK050802],95.1%
10,Cc1nccn1CCCNC(=O)c1cccc(N2CCCCC2)c1 [CBK281646],91.4%
11,CCOc1cc(C(=O)O)ccc1OCCOc1cccc(C)c1 [CBK299781],91.6%
12,Cc1csc2c(C3CCN(C(=O)C4CC4)CC3)nc(C)n12 [CBK285241],88.8%
13,COc1ccc([C@@H](O)[C@H]2CCCNC2)cc1 [CBK282298],86.3%
14,CC(C)(CN)CN(Cc1cccc(Cl)c1)C(=O)Nc1ccc2c(c1)OCO2 [CBK002482C],107%
15,Cc1nnc(Nc2ccc(F)cc2)c2ccccc12 [CBK287873],93.9%
16,COCCC(=O)N[C@H]1CC[C@]2(C)CCC([C@H](C)C(=O)N3CCC(C)CC3)[C@H](O)[C@H]2[C@@H]1C (stereo partly drawn) [CBK289451],103%
17,CCc1cccc(NC(=O)c2cnc(-c3ccc(Cl)cc3)c(-c3ccc(OC)nc3)c2)n1 [CBK036671],93.7%
18,c1ccc2cc(-c3cnc(N4CCOCC4)c4nccn34)ccc2c1 [CBK091307],94.1%
19,CCNC(=O)C1CCN(Cc2c[nH]nc2-c2ccc(F)cc2)C1 (stereo not drawn) [CBK307438],90%
20,O=C(NCCn1nc(-c2ccco2)ccc1=O)C1CCCC1 [CBK283707],92%
21,CSCCN1CCN(c2nccnc2OCc2cccnc2)CC1 [CBK083146],91%
22,CC(=O)NS(=O)(=O)c1ccc(NC(=O)c2cn(-c3ccccc3)nc2-c2cccs2)cc1 [CBK296125],86.3%

row,SMILES,"viability at 28.5 h, 10 µM"
1,CC/C(=C\c1sc2ccc3ccccc3c2[n+]1CCCS(=O)[O-])SC [CBK264941],107%
2,O=C(C1COc2ccccc2O1)N1CCN(c2ncccn2)CC1 (stereo not drawn) [CBK144502],116%
3,O=C(NC(c1ccc(Cl)cc1)c1ccsc1)C1CCN(CCCN2C(=O)CC3CCCCC3C2=O)CC1 (stereo not drawn) [CBK147974],85.3%
4,O=C1CCC(=O)N1CCN1CC(O)CC1c1cc(F)ccc1F (stereo not drawn) [CBK306390],92.8%
5,CCn1cc(S(=O)(=O)NCc2ccccc2F)cn1 [CBK270306],91.6%
6,CC(C)c1ccc(S(=O)(=O)NCCc2ccccc2)cc1 [CBK044426],94.1%
7,COC(=O)CCn1c(-c2ccncc2)cc2cccnc21 [CBK282592],65.2%
8,Cc1cc2c(s1)c1cnn(CC(=O)NCC3CC3)c(=O)c1n2C [CBK284222],91.2%
9,COC(=O)c1sccc1N1C(=O)CSCC1=O [CBK021934],103%
10,O=S(=O)([O-])CCC[n+]1c(/C=C/Nc2ccccc2)oc2ccc3ccccc3c21 [CBK261082],114%
11,Cc1ccc(CN2Cc3cc4ccccc4nc3OC(C)C2=O)o1 (stereo not drawn) [CBK284004],90.6%
12,CNS(=O)(=O)c1ccc(C)c(NC(C)=O)c1C [CBK034426],88.5%
13,O=C(CN1CCc2c([nH]c3ccccc23)C12CCN(Cc1ccc(F)cc1)C2)Nc1ccccc1 (stereo not drawn) [CBK059450],96%
14,Cc1ccc2[nH]c(C)c(CC(=O)N(C)CCN(C)C)c2c1 [CBK282674],105%
15,O=c1[nH]c2ncc(-c3cccnc3)nc2n1Cc1ccc(Cl)cc1 [CBK064561],98.3%
16,CC1CCCN(c2nc3cc(C(=O)O)sc3[nH]2)C1 (stereo not drawn) [CBK287159],88.8%
17,CC(=O)c1ccc(-c2cnc(N)c(NC3CCCCC3)n2)s1 [CBK063596],106%
18,CC(C)CNC(=O)C1CCN(C(=O)c2cccc(F)c2)CC1 [CBK304338],112%
19,Cn1ccc(C(=O)NC(Cc2ccsc2)c2nccs2)cc1=O (stereo not drawn) [CBK285143],87%
20,CC(NC(=O)OC(C)(C)C)c1nnc(SCC(=O)N(C)C)o1 (stereo not drawn) [CBK269932],88.3%
21,CCN(CCO)c1ccc(Nc2cc(-c3cc(C(F)(F)F)cc(C(F)(F)F)c3)ncn2)cc1 [CBK090994],106%
22,COc1ccc([C@@]23CC[C@@H](NC(=O)Nc4ccc(Cl)cc4[N+](=O)[O-])C[C@@H]2N(C)CC3)cc1OC [CBK036474T],84.1%

row,SMILES,"viability at 28.5 h, 10 µM"
1,COCc1ccc(-c2nccnc2NS(=O)(=O)c2c(C)noc2C)cc1 [CBK049656],122%
2,COc1ccccc1-c1nccnc1OCc1ccccc1 [CBK106817],108%
3,CCOC(=O)N1CCN(C(=O)COc2cccc3ccccc23)CC1 [CBK262992],93%
4,c1ccc(COc2ccccc2-c2cc(NCCc3ccccn3)ncn2)cc1 [CBK037826],102%
5,Cc1nc(N)nc(NCC(O)CN(C)C)c1Cl (stereo not drawn) [CBK306963],81.7%
6,Cc1cccc(-c2ccc(CC3(C(=O)NC(C)C)CCN(C(=O)C(C)C)CC3)cc2)c1 [CBK285756],99.8%
7,O=[N+]([O-])c1ccc(CN2CCN(c3nccnc3OCc3ccc(Cl)c(Cl)c3)CC2)cc1 [CBK083076T],101%
8,O=C(O)c1ccc(NS(=O)(=O)c2ccccc2)cc1O [CBK023181],96.1%
9,Cc1cc(CC(=O)N2CCN(C(=O)c3ccco3)CC2)on1 [CBK144465],96.3%
10,CN(Cc1ccc2c(c1)OCO2)C(=O)c1cnn2c(-c3ccccc3)ccnc12 [CBK298276],95%
11,O=C(Cn1nc2n(c1=O)CCCCC2)NCC(O)c1ccc(F)cc1 (stereo not drawn) [CBK305187],95.6%
12,O=C(Cn1ncc2ccccc2c1=O)NNC(=S)Nc1ccc2c(c1)OCO2 [CBK268751],100%
13,COc1ccnc(N2CCN(C(=O)c3cccc4c3NCCC4)CC2)n1 [CBK306639],109%
14,COC(=O)CN(c1ccc(Cl)cc1Cl)S(C)(=O)=O [CBK267654],105%
15,COc1ccccc1Nc1nc(N)c2ccccc2n1 [CBK266665C],90.4%
16,Fc1ccc(-c2cn3ccnc3c(Nc3cccc(OC(F)(F)C(F)F)c3)n2)cc1Cl [CBK037265],98.1%
17,CCOc1ccc(Cl)cc1CN(C)C(=O)NC(c1ncnn1C)C(C)C (stereo not drawn) [CBK307110],80.5%
18,Cc1ccc(S(=O)(=O)N=C2NCN(C)CN2)cc1 [CBK261972],94.3%
19,O=[N+]([O-])c1ccc(CNCCc2c[nH]c3ccccc23)cc1 [CBK262275],80.4%

# Same assay, conditions: human, hela cells, % viability, bulk resorufin, single well
row,SMILES,"viability at 28.5 h, 10 µM"
1,CC(C)(C)OC(=O)N1CCC2(CC1)OCc1cc(-c3cccc(OCC(=O)N4CCOCC4)c3)ccc1O2 [CBK105254],96.8%
2,CC(C)(C)OC(=O)N1CCC2(CC1)OCc1cc(-c3cccc(C(=O)O)c3)ccc1O2 [CBK107809],87.5%
